The results in this text go back to ChEMBL document CHEMBL1201862, “PubChem BioAssay data set” (2004).

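1) Cells in 96-well plates. 2) Compound, 48 h, 5 concentrations. 3) Linear interpolation between surrounding doses. 4) Unreached endpoint = highest concentration. GI50: concentration for 50% inhibition of growth.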 Active and inactive are the calls of the source. Cut-off read from the data, not from the text of the source: active = GI50 up to about 1.1 µM and inactive = higher. Where only a bound is given, the exact number is not on record here.

Some test systems named below: U-251; SNB-75; IGROV-1; SK-MEL-28; BT-549; TK-10; UO-31; MDA-MB-435; UACC-257; Malme-3M; MDA-MB-231; HCT-116; Hs-578T; SNB-19; UACC-62; OVCAR-8; CAKI-1; SK-MEL-2; RPMI-8226.
What all share (assay): DTP human tumour cell line panel, 48 h

In general, GI50 refers to the concentration that inhibits growth by half. Regarding `CCC(C)C(C(=O)N/N=C1/SCC(=O)N1c1ccccc1)C(=O)N/N=C1/SCC(=O)N1c1ccccc1` (centres undefined), the GI50 was 36.8 µM (inactive) in the test with U-251; 44.9 µM (inactive) in the test on SNB-75; > 100 µM (inactive) in the test on IGROV-1; 16.9 µM (inactive) in the test with SK-MEL-28; > 100 µM (inactive) in the test with BT-549; > 100 µM (inactive) in the test with TK-10. The GI50 with UO-31 is > 100 µM (inactive); in the test with MDA-MB-435, 17.9 µM (inactive); with UACC-257 it was > 100 µM (inactive); in the test with Malme-3M it was 21.2 µM (inactive); in the test on MDA-MB-231, 28.8 µM (inactive); with HCT-116, 23 µM (inactive). The GI50 was 32.5 µM (inactive) with Hs-578T; > 100 µM (inactive) in the test with SNB-19; 20 µM (inactive) in the test with UACC-62; 39.7 µM (inactive) with OVCAR-8; > 100 µM (inactive) in the test with CAKI-1; 33.7 µM (inactive) with SK-MEL-2.
Turning to `c1ccc(-c2nn(-c3ccccc3)[n+](-c3ccccc3)n2)cc1` [TETRAZOLIUM RED], the GI50 was 8.97 µM (inactive) with U-251; > 67.6 µM (inactive) in the test on SNB-75; 3.1 µM (inactive) with IGROV-1; 19.4 µM (inactive) in the test with SK-MEL-28; > 50.5 µM (inactive) with BT-549; 43 µM (inactive) with TK-10. For the same compound, the GI50 in the test on UO-31 was > 100 µM (inactive); in the test on MDA-MB-435, 11.1 µM (inactive); with UACC-257, 2.85 µM (inactive); with Malme-3M, 0.394 µM (active); in the test with MDA-MB-231 it was 20 µM (inactive); in the test with HCT-116, 6.5 µM (inactive). Also, the GI50 with Hs-578T was 31.6 µM (inactive); with SNB-19 it was > 35.6 µM (inactive); with UACC-62 it was 13.8 µM (inactive); in the test on OVCAR-8 it was 49.9 µM (inactive); with CAKI-1 it was > 100 µM (inactive); in the test with SK-MEL-2, 36.8 µM (inactive).
`O=C(O)c1ccc(-c2nc3cc(Cl)ccc3[nH]2)cc1`: the GI50 in the test with U-251, with SNB-75, in the test with IGROV-1, with BT-549, with UO-31 and in the test with MDA-MB-231 was > 100 µM (inactive) throughout. Also, the GI50 in the test with RPMI-8226, in the test on Hs-578T, with SNB-19, in the test with OVCAR-8, in the test with CAKI-1 and in the test on SK-MEL-2 was > 100 µM (inactive) each time.
Regarding `COc1ccc(C(=O)/C=C/c2ccc(OCC#N)cc2)cc1`, the GI50 in the test with U-251 was 17.4 µM (inactive); in the test on SNB-75, 77.1 µM (inactive); with IGROV-1, > 10 µM (inactive); with SK-MEL-28, 17.1 µM (inactive); in the test with BT-549, 17.5 µM (inactive); in the test on TK-10, 38.3 µM (inactive). In addition, the GI50 was 16.6 µM (inactive) in the test with UO-31; 24.7 µM (inactive) with MDA-MB-435; 38.9 µM (inactive) with UACC-257; 20.5 µM (inactive) in the test with Malme-3M; 23.4 µM (inactive) in the test on MDA-MB-231; 12.2 µM (inactive) in the test on HCT-116. Further, the GI50 in the test on Hs-578T was 27.7 µM (inactive); in the test with SNB-19, 26.2 µM (inactive); in the test with UACC-62, > 10 µM (inactive); with OVCAR-8 it was 34.5 µM (inactive); with CAKI-1 it was 19.5 µM (inactive).
As to `O=S1(=O)c2cnccc2N=C(NCc2ccccc2)N1c1ccccc1`, the GI50 in the test on U-251 was 98.2 µM (inactive); in the test on SNB-75, 69.5 µM (inactive); with IGROV-1 it was 55.1 µM (inactive); in the test on SK-MEL-28, > 100 µM (inactive); with BT-549, > 100 µM (inactive); with TK-10 it was 30.1 µM (inactive). In addition, the GI50 is > 100 µM (inactive) in the test on UO-31; 92.3 µM (inactive) in the test with MDA-MB-435; > 100 µM (inactive) in the test with UACC-257; > 100 µM (inactive) with Malme-3M; 73.8 µM (inactive) in the test with HCT-116; 20.6 µM (inactive) in the test on RPMI-8226. Further, the GI50 with Hs-578T is 58.3 µM (inactive); in the test with SNB-19, > 100 µM (inactive); with UACC-62 it was 46.7 µM (inactive); in the test on OVCAR-8 it was 78 µM (inactive); with CAKI-1, > 100 µM (inactive); with SK-MEL-2, 83.2 µM (inactive).
`O=C(O)CN(CCNC(=O)OCC1c2ccccc2-c2ccccc21)CCNC(=O)OCC1c2ccccc2-c2ccccc21`: the GI50 in the test with U-251 was 20.1 µM (inactive); in the test on SNB-75, 29.6 µM (inactive); in the test on IGROV-1, 20.6 µM (inactive); with SK-MEL-28 it was 25 µM (inactive); in the test with BT-549, 27.2 µM (inactive); with TK-10 it was 29.1 µM (inactive). The GI50 in the test on UO-31 is 22.1 µM (inactive); in the test with MDA-MB-435 it was 19.1 µM (inactive); with UACC-257 it was 29.2 µM (inactive); in the test on Malme-3M, 22.3 µM (inactive); in the test on MDA-MB-231 it was 17.4 µM (inactive); in the test on HCT-116, 17.7 µM (inactive). Further, the GI50 in the test on RPMI-8226 is 25.4 µM (inactive); with Hs-578T, 43.9 µM (inactive); in the test with SNB-19, 29.6 µM (inactive); in the test with UACC-62 it was 23.7 µM (inactive); in the test with OVCAR-8, 20.1 µM (inactive); in the test on SK-MEL-2 it was 22.9 µM (inactive).
`CN(C)Cc1cc(C=O)cc(CN(C)C)c1O`: the GI50 in the test with U-251, in the test with SNB-75, in the test with IGROV-1, in the test on SK-MEL-28, in the test with BT-549 and in the test with TK-10 was > 100 µM (inactive) each time. Moreover, the GI50 in the test with UO-31, in the test with MDA-MB-435, in the test with UACC-257, with Malme-3M, in the test on MDA-MB-231 and in the test with HCT-116 was > 100 µM (inactive) throughout. In addition, the GI50 in the test on RPMI-8226, in the test on Hs-578T, in the test with SNB-19 and in the test with OVCAR-8 was > 100 µM (inactive) in each case.
For `CN(Cc1cnc2nc(N)nc(N)c2n1)c1ccc(C(=O)NC2CCCCC2)cc1`, the GI50 in the test with U-251 is 11.8 µM (inactive); in the test on SNB-75, 25.2 µM (inactive); in the test with IGROV-1, 13.3 µM (inactive); in the test on BT-549, 23.2 µM (inactive); in the test with TK-10, 51.3 µM (inactive); in the test with UO-31, 87.3 µM (inactive). The GI50 was 21.3 µM (inactive) with UACC-257; 20.9 µM (inactive) with Malme-3M; 33.6 µM (inactive) in the test on MDA-MB-231; 6.65 µM (inactive) with HCT-116; > 100 µM (inactive) with RPMI-8226; 23.6 µM (inactive) with Hs-578T. For the same compound, the GI50 was 14.9 µM (inactive) with SNB-19; 8.2 µM (inactive) in the test on UACC-62; 14.2 µM (inactive) in the test on OVCAR-8; 63.7 µM (inactive) with CAKI-1; 35.5 µM (inactive) with SK-MEL-2.
